pKd: −log10 of the molar value. Values joined by “and” are separate entries in the source; they are usually repeats but may differ in a detail not shown here. Identical values can stand only once. Ends that are not written are not given here. Peptide text beside a SMILES is read from it.
Tests used:
[1] = target: T1, dsA2: HLA-A*02:01(Y84C/A139C) disulfide mutant heavy chain / β2m complex (Homo sapiens, UniProt P04439, A163C/D140Y/D185E/D98H/E176V/E277Q/G131W/G231S/I119V/I121R/I166T/I218V/L300P/L318F/N151K/N90K/P208A/P217A/Q86G/Q94H/R138H/R169H/T345S/Y108C); assay: biochemical; format: binding
T1 construct: made in house; host or cells: Escherichia coli (pET3a)

[2] = target: T2, dsA2: HLA-A*02:01(Y84C/A139C) disulfide mutant heavy chain / β2m complex (Homo sapiens, UniProt P04439, D140Y/D185E/D98H/E176V/E277Q/G131W/G231S/I119V/I121R/I166T/I218V/L300P/L318F/N151K/N90K/P208A/P217A/Q86G/Q94H/R138H/R169H/T345S/A163C/Y108C); assay: native mass spectrometry (nMS) of peptide binding to empty dsA2; conditions: for AUC dsA2 (empty) / AUC dsA2/erucamide / AUC dsA2/pep / AUC dsA2/pep/pep: cone 150 V, ratio 1:5, raw data, mean of >=3 measurements;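 as to all read-outs here: native nano-electrospray MS on Q-Tof II in positive mode, dsA2 at 10 µM with peptide 50–200 µM, incubated ≥10 min on ice, argon collision gas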
T2 construct: made in house; host or cells: Escherichia coli (pET3a)

[3] = target: T1, dsA2: HLA-A*02:01(Y84C/A139C) disulfide mutant heavy chain / β2m complex; assay: as above
[4] = target: empty disulfide-stabilized HLA-A*02:01(Y84C/A139C) in complex with beta-2 microglobulin (human); assay: native MS
[5] = target: empty disulfide-stabilized HLA-A*02:01(Y84C/A139C) in complex with beta-2 microglobulin (human); assay: isothermal analysis of nanoscale differential scanning fluorimetry (iDSF)
[6] = target: empty disulfide-stabilized HLA-A*02:01(Y84C/A139C) complex of heavy chain and beta-2 microglobulin (human); assay: native MS
[7] = target: empty disulfide-stabilized HLA-A*02:01(Y84C/A139C) complex of heavy chain and beta-2 microglobulin (human); assay: nanoscale differential scanning fluorimetry (nDSF, thermal stabilisation)
[8] = target: T2, dsA2: HLA-A*02:01(Y84C/A139C) disulfide mutant heavy chain / β2m complex; assay: nanoscale differential scanning fluorimetry (nDSF) thermal stability; format: binding; conditions: for Tm: dsA2 2 µM, at least two independent measurements

Row | Compound | pKd [1] | AUC dsA2 (empty) ([2]; acceleration voltage 10 V) | AUC dsA2/erucamide ([2]; acceleration voltage 10 V) | AUC dsA2/pep ([2]; acceleration voltage 10 V) | AUC dsA2/pep/pep ([2]; acceleration voltage 10 V) | AUC dsA2 (empty) ([2]; acceleration voltage 25 V) [%] | AUC dsA2/erucamide ([2]; acceleration voltage 25 V) [%] | AUC dsA2/pep ([2]; acceleration voltage 25 V) [%] | AUC dsA2/pep/pep ([2]; acceleration voltage 25 V) [%] | AUC dsA2 (empty) ([2]; acceleration voltage 50 V) [%] | AUC dsA2/erucamide ([2]; acceleration voltage 50 V) [%] | AUC dsA2/pep ([2]; acceleration voltage 50 V) [%] | AUC dsA2/pep/pep ([2]; acceleration voltage 50 V) [%] | pKd [5] | also measured
1 | CC(C)C[C@H](NC(=O)[C@@H](N)CC(N)=O)C(=O)N[C@H](C(=O)N1CCC[C@H]1C(=O)O)C(C)C [NP4] (H-NLVP-OH) | 4.30 | 55% | 33.8% | 11% | 0.6% | 57.8 | 31.1 | 10.4 | 0.69 | 92.4 | 4.3 | 2.6 | 0.8 |  | pKd [3]: 3.46 and 4.00
2 | CC(C)[C@H](N)C(=O)N[C@@H](C)C(=O)N[C@H](C(=O)N[C@H](C(=O)O)C(C)C)[C@@H](C)O [VV4] (H-VATV-OH) | 4.30 | 68% | 18.093% | 14% | 0% | 68 | 17.6 | 14 | 0 | 92 | 4.0 | 4.1 | 0 |  | 
3 | CCCCCCCC/C=C\CCCCCCCCCCCC(N)=O [erucamide, (Z)-docos-13-enamide] |  |  |  |  |  |  |  |  |  |  |  |  |  |  | occupancy of dsA2 with erucamide ([2]; no peptide, linear extrapolation to cone voltage <=48 V (experimentally unfeasible)): 100%
4 | Ac-NV9-NH2, NV9 with acetylated N-terminus and amidated C-terminus (peptide) |  |  |  |  |  |  |  |  |  |  |  |  |  | 5.40 | pKd [4]: 4.10
5 | Ac-NV9-NH2, NV9 with an acetylated N-terminus and an amidated C-terminus (peptide) |  |  |  |  |  |  |  |  |  |  |  |  |  |  | pKd [6]: 5.15; ∆Tm [7]: 2.7 K
6 | GLGGGGGGV [GV9] |  | 52% | 4.3% | 43 ± 2% and 43% | 1.5 ± 0.4% and 1.5% | 50 | 5 | 43 | 2.2 | 62 | 1.7 | 35 | 1.1 |  | pKd ([1]; dsA2 2.2 µM, 20 mM Tris pH 8, 150 mM NaCl, twofold serial dilution, 11 concentrations, two independent measurements, values marked * (below 200 nM) not reliable, read-out: Kd,iDSF): 6.44; pKd ([3]; read-out: Kd,high): 4.46; pKd ([3]; read-out: Kd,low): 6.30
7 | LV8 (LVPMVATV), truncated NV9 variant (peptide) |  |  |  |  |  |  |  |  |  |  |  |  |  | 8.10 | pKd [4]: 4.77
8 | LV8, NV9 without the N-terminal asparagine (peptide) |  |  |  |  |  |  |  |  |  |  |  |  |  |  | pKd [6]: 7.15; ∆Tm [7]: 11.6 K
9 | LVPMVATV [LV8] | 8.10 | 42% | 1.7% | 54% | 2.8% | 40 | 1.5 | 54 | 3.9 | 53 | 0.4 | 45 | 1.6 |  | 
10 | MV5 (MVATV), truncated NV9 variant (peptide) |  |  |  |  |  |  |  |  |  |  |  |  |  | 5.80 | 
11 | MVATV [MV5] | 5.80 | 64% | 10.4% | 23% | 3.2% | 63 | 10.4 | 23 | 3.7 | 80 | 3.3 | 15 | 1.5 |  | pKd ([3]; Kd,high): 3.96; pKd ([3]; Kd,low): 5.52
12 | NA7 (NLVPMVA), truncated NV9 variant (peptide) |  |  |  |  |  |  |  |  |  |  |  |  |  | 5.44 | 
13 | NLVPM [NM5] | 4.96 | 62% | 19% | 17.9% | 1.0% | 64 | 17 | 18.0 | 1.2 | 90.3 | 1.3 | 8.1 | 0.3 |  | pKd ([3]; Kd,high): 3.74; pKd ([3]; Kd,low): 4.82
14 | NLVPMV [NV6] | 5.05 | 66% | 24% | 10% | 0.5% | 66 | 22 | 11 | 0.69 | 91.2 | 2.9 | 4.1 | 1.9 |  | pKd ([3]; Kd,high): 3.42; pKd ([3]; Kd,low): 4.52
15 | NLVPMVA [NA7] | 5.44 | 75% | 8% | 16% | 0.8% | 68 | 11 | 19 | 1.4 | 86 | 1.8 | 12 | 0.5 |  | pKd ([3]; Kd,high): 3.68; pKd ([3]; Kd,low): 5.70
16 | NLVPMVAT [NT8] | 5.59 | 47.3% | 24% | 28% | 0.6% | 50 | 21 | 28.2 | 1 | 75 | 1.6 | 23 | 0.2 |  | pKd [3]: 4.04 and 4.52
17 | NM5 (NLVPM), truncated NV9 variant (peptide) |  |  |  |  |  |  |  |  |  |  |  |  |  | 4.96 | 
18 | NP4 (NLVP), truncated NV9 variant (peptide) |  |  |  |  |  |  |  |  |  |  |  |  |  | 4.30 | pKd [4]: 3.46 and 4.00
19 | NT8 (NLVPMVAT), truncated NV9 variant (peptide) |  |  |  |  |  |  |  |  |  |  |  |  |  | 5.59 | pKd [4]: 4.04
20 | NT8, NV9 without the C-terminal valine (peptide) |  |  |  |  |  |  |  |  |  |  |  |  |  |  | pKd [6]: 4.52
21 | NV6 (NLVPMV), truncated NV9 variant (peptide) |  |  |  |  |  |  |  |  |  |  |  |  |  | 5.05 | 
22 | PMVATV [PV6] | 4.82 | 68% | 19% | 12% | 0.5% | 68 | 19 | 13 | 0.5 | 90 | 5 | 5 | 0.1 |  | pKd ([3]; Kd,high): 3.52; pKd ([3]; Kd,low): 4.82
23 | PV6 (PMVATV), truncated NV9 variant (peptide) |  |  |  |  |  |  |  |  |  |  |  |  |  | 4.82 | 
24 | VPMVATV [VV7] | 5.11 | 61.8% | 19% | 17% | 1.7% | 62 | 20.2 | 17 | 1.16 | 96 | 1.3 | 3 | 0 |  | pKd ([3]; Kd,high): 3.74; pKd ([3]; Kd,low): 4.82
25 | VV4 (VATV), truncated NV9 variant (peptide) |  |  |  |  |  |  |  |  |  |  |  |  |  | 4.30 | 
26 | VV7 (VPMVATV), truncated NV9 variant (peptide) |  |  |  |  |  |  |  |  |  |  |  |  |  | 5.11 | 
27 | YPNVNIHNF [YF9, reference compound] |  | 56 ± 3% and 56% | 39 ± 2% and 39% | 4 ± 2% and 4% | 0% | 51 | 44 | 5 | 0 | 95 | 2 | 5 | 0 |  | Tm ([8]; peptide 0.2 µM): 36.1 °C; Tm ([8]; peptide 2 µM): 36.1 °C; Tm ([8]; peptide 20 µM): 36.2 °C; ∆Tm of dsA2 by peptide binding ([8]; protein-peptide ratio 1:10 (dsA2 2 µM), relative to empty dsA2 Tm 35.7 ± 0.6 °C, citrate phosphate buffer pH 7.6, duplicates): 1 ± 1 K
